Reference: patent US20220289732A1, “HETEROCYCLIC WDR5 INHIBITORS AS ANTI-CANCER COMPOUNDS” (NOVARTIS AG, priority 2019, published 2022)

Experiments:
WDR5 = WDR5 (Homo sapiens, UniProt P61964); test: WDR5 HTRF binding assay; details: read-out: (a) WDR5 HTRF Pep Val v.1[Inhibitor/IC50]Qualified AC50
Procedure, shortened: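 In this HTRF displacement format, biotinylated MLL1 WIN peptide (3762-3773, 20 nM) binds WDR5 (6 nM) in 25 mM Hepes pH 7.5 with 100 mM NaCl, 2 mM DTT and 0.1% BSA for 20 min at rt. Detection used streptavidin-APC/anti-His-Eu for 1 hr. IC50 came from dose-response fits of normalized signal; 15 nM biotin-PEG-His peptide served as counter assay.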

[1] = target: wild type MLL1 four-member complex (MLL1-4C) (Homo sapiens, UniProt P61964); test: MLL1 LC-MS assay (SAH production); type: biochemical; details: read-out: (b) MLL LCMS Peptide Val.v.1 Qualified AC50
Procedure, shortened: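 SAH formation, measured by LC-MS/MS after a TFA quench containing d4-SAH, was normalised to no-compound and no-enzyme controls and fitted to a dose-response curve for IC50. Reactions ran 120 min at rt (pH 8.0 Tris buffer) with final 30 nM MLL1 four-member complex, 2.5 μM SAM and 10 μM biotinylated H3[1-21] peptide, after a 20-min enzyme/SAM-compound preincubation.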

MV4-11 cells = test: MV4-11 6-day cell growth CTG (CellTiter-Glo) assay; type: cell-based; details: Homo sapiens, MV4-11, 144 h, 6 days, read-out: (c) MLL/WDR5 cell proliferation assay//MLL/WDR5 proliferation MV4:11 Qualified AC50
Procedure, shortened: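 IC50 comes from a dose-response fit of % inhibition relative to DMSO controls, with viable cells measured by CellTiter-Glo luminescence. Compounds were tested over 12 points (1:3, starting at 50 μM final) on MV4-11 cells plated at 300/well and grown 6 days.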

Row | Structure (SMILES) | IC50 (WDR5) [nM] | AC50 [1] [nM] | AC50 (MV4-11 cells) [nM]
1 | CCOc1cc([C@H](C)N2CCc3c(cc(CCN(C)CC)cc3-c3cn(C)c(=O)cc3C(F)F)C2=O)ncc1C#N [Example 149, (S)-6-(1-(5-(4-(difluoromethyl)-1-methyl-6-oxo-1,6-dihydropyridin-3-yl)-7-(2-(ethyl(methyl)amino)ethyl)-1-oxo-3,4-dihydroisoquinolin-2(1H)-yl)ethyl)-4-ethoxynicotinonitrile] | 10 to 1000 | 10 to 1000 | 10 to 1000
2 | CCOc1cc(C(C)N2CCc3c(cc(CCN(C)CC)cc3-c3cc(O)cnc3C)C2=O)ncc1C#N (stereo not drawn) [Example 150, 4-ethoxy-6-(1-(7-(2-(ethyl(methyl)amino)ethyl)-5-(5-hydroxy-2-methylpyridin-3-yl)-1-oxo-3,4-dihydroisoquinolin-2(1H)-yl)ethyl)nicotinonitrile] | 10 to 1000 | 10 to 1000 | 10 to 1000
3 | CCOc1cc(C(C)N2CCc3c(cc(CCN(C)CC)cc3-c3cccnc3CC)C2=O)ncc1C#N (stereo not drawn) [Example 151, 4-ethoxy-6-(1-(7-(2-(ethyl(methyl)amino)ethyl)-5-(2-ethylpyridin-3-yl)-1-oxo-3,4-dihydroisoquinolin-2(1H)-yl)ethyl)nicotinonitrile] | 10 to 1000 | 10 to 1000 | 10 to 1000
4 | CCOc1cc([C@H](C)N2CCc3c(cc(CCN(C)CC)cc3-c3ccncc3Cl)C2=O)ncc1C#N [Example 152, (S)-6-(1-(5-(3-chloropyridin-4-yl)-7-(2-(ethyl(methyl)amino)ethyl)-1-oxo-3,4-dihydroisoquinolin-2(1H)-yl)ethyl)-4-ethoxynicotinonitrile] | 10 to 1000 | 10 to 1000 | 10 to 1000
5 | CCOc1cc(C(C)N2CCc3c(cc(CCN(C)CC)cc3-c3cc(C(C)O)cnc3Cl)C2=O)ncc1C#N (stereo not drawn) [Example 153, 6-(1-(5-(2-chloro-5-(1-hydroxyethyl)pyridin-3-yl)-7-(2-(ethyl(methyl)amino)ethyl)-1-oxo-3,4-dihydroisoquinolin-2(1H)-yl)ethyl)-4-ethoxynicotinonitrile] | 10 to 1000 | 10 to 1000 | 10 to 1000
6 | CCOc1cc(CN2CCc3c(cc(CCN(C)CC)cc3-c3cc(C)ncc3F)C2=O)ncc1C#N [Example 154, 4-ethoxy-6-((7-(2-(ethyl(methyl)amino)ethyl)-5-(5-fluoro-2-methylpyridin-4-yl)-1-oxo-3,4-dihydroisoquinolin-2(1H)-yl)methyl)nicotinonitrile] | 10 to 1000 | 10 to 1000 | 10 to 1000
7 | CCOc1cc(CN2CCc3c(cc(CCN(C)CC)cc3-c3ccc(N)nc3C)C2=O)ncc1C#N [Example 155, 6-((5-(6-amino-2-methylpyridin-3-yl)-7-(2-(ethyl(methyl)amino)ethyl)-1-oxo-3,4-dihydroisoquinolin-2(1H)-yl)methyl)-4-ethoxynicotinonitrile] | 10 to 1000 | 10 to 1000 | 10 to 1000
8 | CCOc1cc([C@@H](C)N2CCc3c(cc(CCN(C)CC)cc3-c3cc(C)cnc3C)C2=O)ncc1C#N [Example 156, (R)-6-(1-(5-(2,5-dimethylpyridin-3-yl)-7-(2-(ethyl(methyl)amino)ethyl)-1-oxo-3,4-dihydroisoquinolin-2(1H)-yl)ethyl)-4-ethoxynicotinonitrile] | 10 to 1000 | 10 to 1000 | 1000 to 25000
9 | CCOc1cc([C@H](C)N2CCc3c(cc(CCN(C)CC)cc3-c3cncn3C)C2=O)ncc1C#N [Example 157, (S)-4-ethoxy-6-(1-(7-(2-(ethyl(methyl)amino)ethyl)-5-(1-methyl-1H-imidazol-5-yl)-1-oxo-3,4-dihydroisoquinolin-2(1H)-yl)ethyl)nicotinonitrile] | 10 to 1000 | 10 to 1000 | 1000 to 25000
10 | CCOc1cc(C(C)N2CCc3c(cc(CCN(C)CC)cc3C3CC3)C2=O)ncc1C#N (stereo not drawn) [Example 158, 6-(1-(5-cyclopropyl-7-(2-(ethyl(methyl)amino)ethyl)-1-oxo-3,4-dihydroisoquinolin-2(1H)-yl)ethyl)-4-ethoxynicotinonitrile] | 10 to 1000 | 10 to 1000 | 1000 to 25000
